Test results from patent US9492545B2, “Compositions of statins and omega-3 fatty acids” (Omthera Pharmaceuticals, Inc., priority 2012, dated 2016).

Tests used:
[1] = Solubility of statins in various pH buffers (Example 1)
[2] = Stability testing of statins dissolved in PUFA free acid solvent system at 25° C., 60% RH (Example 5); type: physicochemical
Procedure: The compositions were then mixed until full dissolution was observed, using a magnetic stir bar and sonication for 30-60 second intervals, taking care to maintain a nitrogen headspace over the solution throughout processing. […] Vials were covered with foil to protect from light and stored at 25° C., 60% RH. One vial of each of the three compositions was retrieved at each timepoint for testing. Procedures as listed in the USP Monograph for Omega-3-Acid Ethyl Ester Capsules were followed for measuring quantities of acid value, peroxide value, and absorbance for fats and fixed oils.

[3] = Solubility of statins in omega-3 ethyl ester solvent system, Lovaza fill (Example 3); conditions: sonicated 1 hour, overnight, supernatant by HPLC
[4] = Solubility of statins in PUFA free acid solvent system, HPLC of supernatant (Example 4); type: physicochemical; conditions: 2 mL PUFA free acid solvent; after addition of about 313 mg; before overnight standing
Procedure: For this study, ten vials were prepared such that 5 vials contained 2 mL of Lovaza oil and 5 vials contained 2 mL of PUFA free acid solvent system. About 20 mg of each statin were added to one Lovaza oil vial and to one PUFA free acid solvent system vial. Vials containing the samples were blanketed with nitrogen, then sealed. The vials were then sonicated for 1 hour or until contents appeared clear. After sonication, vials which remained clear received additional 20 mg aliquots of their respective statin and were again blanketed with nitrogen. […] The samples were centrifuged and the supernatant was assayed for the respective statin by HPLC.

Structure (SMILES) | Solubility ([1]; acid phthalate buffer pH 4.0, T = 1 Week) | pH of maximal aqueous solubility ([1]; across the tested pH buffers) | Aqueous solubility (in words) ([1]; overall across pH buffers, rosuvastatin at time zero) | Statin in oil, content ([2]; t = 0) [mg/g] | Statin in oil, percent of total ([2]; t = 0) [%] | Statin in oil, content ([2]; t = 1 week) [mg/g] | Statin in oil, percent of total ([2]; t = 1 week) [%] | Statin in oil, content ([2]; t = 2 week) [mg/g] | Statin in oil, percent of total ([2]; t = 2 week) [%] | Initial solubility in PUFA ethyl ester solvent system, Concentration [3] [µg/mL] | Appearance of vial after repeated statin additions and sonication [4]
CC(C)c1nc(N(C)S(C)(=O)=O)nc(-c2ccc(F)cc2)c1/C=C/[C@@H](O)C[C@@H](O)CC(=O)[O-].CC(C)c1nc(N(C)S(C)(=O)=O)nc(-c2ccc(F)cc2)c1/C=C/[C@@H](O)C[C@@H](O)CC(=O)[O-].[Ca+2] [Rosuvastatin, Rosuvastatin Calcium] | 0.002 | ~7.0 | significant aqueous solubility | 6.481 | 100 | 6.416 | 100 | 6.505 | 100 | 1 | –
CC(C)c1c(C(=O)Nc2ccccc2)c(-c2ccccc2)c(-c2ccc(F)cc2)n1CC[C@@H](O)C[C@@H](O)CC(=O)[O-].CC(C)c1c(C(=O)Nc2ccccc2)c(-c2ccccc2)c(-c2ccc(F)cc2)n1CC[C@@H](O)C[C@@H](O)CC(=O)[O-].[Ca+2] [Atorvastatin, Atorvastatin Calcium] | – | – | – | 8.738 | 100 | 8.275 | 100 | 7.839 | 100 | – | –
CC[C@H](C)C(=O)O[C@H]1C[C@H](O)C=C2C=C[C@H](C)[C@H](CC[C@@H](O)C[C@@H](O)CC(=O)O)[C@H]21 [Pravastatin Sodium] | – | – | – | – | – | – | – | – | – | – | still remained clear
